Patent publication US20130303532A1, “IMIDAZOPYRAZINES FOR USE AS MPS-1 AND TKK INHIBITORS IN THE TREATMENT HYPERPROLIFERATIVE DISORDERS” (BAYER INTELLECTUAL PROPERTY GmbH, priority 2010, published 2013)

What follows are molecules tested against T1, human kinase Mps-1 (Homo sapiens, UniProt P33981) (assay: Mps-1 kinase assay (TR-FRET)). Settings: Mps1 IC50 [nM], N-terminally GST-tagged human full length recombinant Mps-1; 10 μM ATP; 1 μM biotinylated peptide substrate; 60 min at 22° C.
T1 construct: N-terminally GST-tagged human full length recombinant Mps-1 kinase; GST (N); purchased Invitrogen, Karslruhe, Germany PV4071
T1 sequence (P33981 1-857): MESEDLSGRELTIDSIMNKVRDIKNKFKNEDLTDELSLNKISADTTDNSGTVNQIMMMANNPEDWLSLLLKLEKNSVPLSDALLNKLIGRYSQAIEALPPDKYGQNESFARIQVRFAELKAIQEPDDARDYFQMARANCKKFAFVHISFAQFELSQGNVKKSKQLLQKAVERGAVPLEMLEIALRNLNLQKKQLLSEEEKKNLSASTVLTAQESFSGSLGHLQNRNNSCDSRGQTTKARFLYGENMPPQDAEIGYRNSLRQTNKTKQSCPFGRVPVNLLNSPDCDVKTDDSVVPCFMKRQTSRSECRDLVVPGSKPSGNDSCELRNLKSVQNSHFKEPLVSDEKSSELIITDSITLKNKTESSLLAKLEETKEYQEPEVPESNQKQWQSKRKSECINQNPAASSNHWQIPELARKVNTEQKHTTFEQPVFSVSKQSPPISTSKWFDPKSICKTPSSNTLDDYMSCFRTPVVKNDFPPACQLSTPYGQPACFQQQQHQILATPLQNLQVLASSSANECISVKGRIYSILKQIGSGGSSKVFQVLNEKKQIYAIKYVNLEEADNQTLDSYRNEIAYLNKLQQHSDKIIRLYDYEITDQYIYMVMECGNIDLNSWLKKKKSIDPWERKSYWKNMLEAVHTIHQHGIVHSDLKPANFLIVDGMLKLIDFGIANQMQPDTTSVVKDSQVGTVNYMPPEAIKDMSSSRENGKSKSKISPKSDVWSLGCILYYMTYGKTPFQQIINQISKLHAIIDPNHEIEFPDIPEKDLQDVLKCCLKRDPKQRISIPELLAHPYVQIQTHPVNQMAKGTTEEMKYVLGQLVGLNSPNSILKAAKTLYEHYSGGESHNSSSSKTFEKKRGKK
Type: biochemical
`Cc1cc(-c2cnc3c(NCC(C)C)nccn23)cc(C)c1C(=O)NC1CC1` [Example 1-2, N-cyclopropyl-2,6-dimethyl-4-{8-[(2-methylpropyl)amino]imi-dazo[1,2-a]pyrazin-3-yl}benzamide] showed an IC50 of 1230 nM.
With `CC(C)CNc1nccn2c(-c3ccc(C(=O)NC4CC4)cc3F)cnc12` [Example 1-3, N-cyclopropyl-3-fluoro-4-{8-[(2-methylpropyl)amino]imi-dazo[1,2-a]pyrazin-3-yl}benzamide] the IC50 was 9 nM.
`CC(C)CNc1nccn2c(-c3ccc(C(=O)NC4CC4)c(F)c3)cnc12` [Example 1-4, N-cyclopropyl-2-fluoro-4-{8-[(2-methylpropyl)amino]imi-dazo[1,2-a]pyrazin-3-yl}benzamide] showed an IC50 of 34 nM.
In the case of `O=C(NC1CC1)c1ccc(-c2cnc3c(NCc4ccccc4F)nccn23)cc1` [Example 4-3, N-cyclopropyl-4-{8-[(2-fluorobenzyl)amino]imi-dazo[1,2-a]pyrazin-3-yl}benzamide], the IC50 is reported as 11 nM.
With `O=C(NC1CC1)c1ccc(-c2cnc3c(NCc4ccn[nH]4)nccn23)cc1` [Example 4-4, N-cyclopropyl-4-{8-[(1H-pyrazol-5-ylmethyl)amino]imi-dazo[1,2-a]pyrazin-3-yl}benzamide] the IC50 was 69.8 nM.
Molecule `COc1ccccc1CNc1nccn2c(-c3ccc(C(=O)NC4CC4)cc3)cnc12` [Example 4-8, N-cyclopropyl-4-{8-[(2-methoxybenzyl)amino]imi-dazo[1,2-a]pyrazin-3-yl}benzamide] has an IC50 of 85.5 nM.
Molecule `Cc1cc(-c2cnc3c(NCc4ccccc4O)nccn23)ccc1C(=O)NC1CC1` [Example 5-2, N-cyclopropyl-4-{8-[(2-hydroxybenzyl)amino]imi-dazo[1,2-a]pyrazin-3-yl}-2-methylbenzamide] has an IC50 of 24.4 nM.
`Cc1cc(-c2cnc3c(NCc4ccn[nH]4)nccn23)ccc1C(=O)NC1CC1` [Example 5-3, N-cyclopropyl-2-methyl-4-{8-[(1H-pyrazol-5-ylmethyl)amino]imi-dazo[1,2-a]pyrazin-3-yl}benzamide] was tested, and the IC50 was 86.7 nM.
`Cc1cc(-c2cnc3c(NCc4ccccc4Cl)nccn23)ccc1C(=O)NC1CC1` [Example 5-4, 4-{8-[(2-chlorobenzyl)amino]imi-dazo[1,2-a]pyrazin-3-yl}-N-cyclopropyl-2-methylbenzamide] showed an IC50 of 18.8 nM.
Work on `Cc1cc(-c2cnc3c(NCc4ccnn4C)nccn23)ccc1C(=O)NC1CC1` [Example 5-5, N-cyclopropyl-2-methyl-4-(8-{[(1-methyl-1H-pyrazol-5-yl)methyl]amino}imi-dazo[1,2-a]pyrazin-3-yl)benzamide] yielded an IC50 of 67 nM.
Work on `COCCNc1nccn2c(-c3ccc(C(=O)NC4CC4)cc3)cnc12` [Example 7-2, N-cyclopropyl-4-{8-[(2-methoxyethyl)amino]imi-dazo[1,2-a]pyrazin-3-yl}benzamide] yielded an IC50 of 272 nM.
Molecule `COCCCNc1nccn2c(-c3ccc(C(=O)NC4CC4)cc3)cnc12` [Example 7-3, N-cyclopropyl-4-{8-[(3-methoxypropyl)amino]imi-dazo[1,2-a]pyrazin-3-yl}benzamide] has an IC50 of 95.8 nM.
`O=C(NC1CC1)c1ccc(-c2cnc3c(NCCCN4CCOCC4)nccn23)cc1` [Example 7-5, N-cyclopropyl-4-(8-{[3-(morpholin-4-yl)propyl]amino}imi-dazo[1,2-a]pyrazin-3-yl)benzamide] was tested, and the IC50 was 328 nM.
With `O=C(NC1CC1)c1ccc(-c2cnc3c(NCCc4ccccc4)nccn23)cc1` [Example 7-9, N-cyclopropyl-4-{8-[(2-phenylethyl)amino]imi-dazo[1,2-a]pyrazin-3-yl}benzamide] the IC50 was 47.7 nM.
`COc1cc(CNc2nccn3c(-c4ccc(C(=O)NC5CC5)cc4)cnc23)cc(OC)c1OC` [Example 7-13, N-cyclopropyl-4-{8-[(3,4,5-trimethoxybenzyl)amino]imi-dazo[1,2-a]pyrazin-3-yl}benzamide] was tested, and the IC50 was 429 nM.

Same assay, conditions: N-terminally GST-tagged human full length recombinant Mps-1; 10 μM ATP; 1 μM biotinylated peptide substrate; 60 min at 22° C.; read-out: Mps1 IC50
In the case of “2-chloro-N-cyclopropyl-4- {8-[(2- sulfamoylethyl)amino]imi- dazo[1,2-a]pyrazin-3- yl}benzamide [Example 7-67]”, the IC50 is reported as 250 nM.
Work on “4-{8-[(3-amino-3- oxopropyl)amino]imi- dazo[1,2-a]pyrazin-3-yl}-N- cyclopropylbenzamide [Example 7-25]” yielded an IC50 of 1190 nM.
With `Cc1cc(C(=O)NC2CC2)ccc1-c1cnc2c(NCC(C)C)nccn12` [Example 1-1, N-cyclopropyl-3-methyl-4-{8-[(2-methylpropyl)amino]imidazo[1,2-a]pyrazin-3-yl}benzamide] the IC50 was 52.4 nM.
`O=C(NC1CC1)c1ccc(-c2cnc3c(NCCCO)nccn23)cc1` [Example 3-1, N-cyclopropyl-4-[8-[(3-hydroxypropyl)amino]imidazo[1,2-a]pyrazin-3-yl]benzamide] was tested, and the IC50 was 54.5 nM.
In the case of `CC(C)(O)CNc1nccn2c(-c3ccc(C(=O)NC4CC4)cc3)cnc12` [Example 3-2, N-cyclopropyl-4-{8-[(2-hydroxy-2-methylpropyl)amino]imidazo[1,2-a]pyrazin-3-yl}benzamide], the IC50 is reported as 92.7 nM.
With `NCCCNc1nccn2c(-c3ccc(C(=O)NC4CC4)c(Cl)c3)cnc12` [Example 3-3, 4-{8-[(3-Aminopropyl)amino]imidazo[1,2-a]pyrazin-3-yl}-2-chloro-N-cyclopropylbenzamide] the IC50 was 2500 nM.
Work on `COc1cc(C(=O)NC2CC2)ccc1-c1cnc2c(NCCCN)nccn12` [Example 3-4, 4-{8-[(3-Aminopropyl)amino]imidazo[1,2-a]pyrazin-3-yl}-N-cyclopropyl-3-methoxybenzamide] yielded an IC50 of 421 nM.
`CS(=O)(=O)CCNc1nccn2c(-c3ccc(C(=O)NC4CC4)cc3)cnc12` [Example 4-1, N-cyclopropyl-4-(8-{[2-(methylsulfonyl)ethyl]amino}imidazo[1,2-a]pyrazin-3-yl)benzamide] gave an IC50 of 17.2 nM.
With `CS(=O)(=O)CCCNc1nccn2c(-c3ccc(C(=O)NC4CC4)cc3)cnc12` [Example 4-2, N-cyclopropyl-4-(8-{[3-(methylsulfonyl)propyl]amino}imidazo[1,2-a]pyrazin-3-yl)benzamide] the IC50 was 87.4 nM.
`COC(=O)CCCNc1nccn2c(-c3ccc(C(=O)NC4CC4)cc3)cnc12` [Example 4-5, methyl 4-({3-[4-(cyclopropylcarbamoyl)phen-yl]imidazo[1,2-a]pyrazin-8-yl}amino)butanoate] was tested, and the IC50 was 103 nM.
Work on `COC(=O)CCNc1nccn2c(-c3ccc(C(=O)NC4CC4)cc3)cnc12` [Example 4-6, methyl N-{3-[4-(cyclopropylcarbamoyl)phen-yl]imidazo[1,2-a]pyrazin-8-yl}-beta-alaninate] yielded an IC50 of 74.9 nM.
`CCCCNc1nccn2c(-c3ccc(C(=O)NC4CC4)cc3)cnc12` [Example 4-7, 4-[8-(butylamino)imidazo[1,2-a]pyrazin-3-yl]-N-cyclopropylbenzamide] was tested, and the IC50 was 37.2 nM.
With `Cc1cc(-c2cnc3c(NCCCS(C)(=O)=O)nccn23)ccc1C(=O)NC1CC1` [Example 5-1, N-cyclopropyl-2-methyl-4-(8-{[3-(methylsulfonyl)propyl]amino}imidazo[1,2-a]pyrazin-3-yl)benzamide] the IC50 was 278 nM.
For `CC(C)CNc1nccn2c(-c3ccc(C(=O)NC4CC4)c(Cl)c3)cnc12` [Example 6-1, 2-chloro-N-cyclopropyl-4-{8-[(2-methylpropyl)amino]imidazo[1,2-a]pyrazin-3-yl}benzamide], the IC50 was 28 nM.
`CCCCCNc1nccn2c(-c3ccc(C(=O)NC4CC4)cc3)cnc12` [Example 7-1, N-cyclopropyl-4-[8-(pentylamino)imidazo[1,2-a]pyrazin-3-yl]benzamide] gave an IC50 of 22.5 nM.
Work on `O=C(NC1CC1)c1ccc(-c2cnc3c(NCCN4CCOCC4)nccn23)cc1` [Example 7-4, N-cyclopropyl-4-(8-{[2-(morpholin-4-yl)ethyl]amino}imidazo[1,2-a]pyrazin-3-yl)benzamide] yielded an IC50 of 341 nM.
For `CN(C)CCCNc1nccn2c(-c3ccc(C(=O)NC4CC4)cc3)cnc12` [Example 7-6, N-cyclopropyl-4-(8-{[3-(dimethylamino)propyl]ami-nono}imidazo[1,2-a]pyrazin-3-yl)benzamide], the IC50 was 1260 nM.
With `CN(C)CCNc1nccn2c(-c3ccc(C(=O)NC4CC4)cc3)cnc12` [Example 7-7, N-cyclopropyl-4-(8-{[2-(dimethylamino)ethyl]ami-no}imidazo[1,2-a]pyrazin-3-yl)benzamide] the IC50 was 4050 nM.
Molecule `O=C(NC1CC1)c1ccc(-c2cnc3c(NCCN4CCCCC4)nccn23)cc1` [Example 7-8, N-cyclopropyl-4-(8-{[2-(piperidin-1-yl)ethyl]amino}imidazo[1,2-a]pyrazin-3-yl)benzamide] has an IC50 of 1950 nM.
`CCNc1nccn2c(-c3ccc(C(=O)NC4CC4)cc3)cnc12` [Example 7-10, N-cyclopropyl-4-[8-(ethylamino)imidazo[1,2-a]pyrazin-3-yl]benzamide] gave an IC50 of 115 nM.
